Key:
[1] = cited from earlier work
[2] = Penetration of radiolabeled model compounds into human nail plate, diffusion cell, twice daily topical dosing for 7 days; details: for Radioactive Content, Dorsal/intermediate center / Radioactive Content, Ventral/intermediate center / Increase of radioactivity in the ventral surface of the nail plate, carrier formulation compared with saline control: twice daily for 7 days; for Radioactive Content, Dorsal/intermediate center / Radioactive Content, Ventral/intermediate center / Percent Applied Dose, Cotton supporting bed / Percent Applied Dose, Dorsal/intermediate center / Percent Applied Dose, Remainder of nail / Percent Applied Dose, Subtotal (nail) / Percent Applied Dose, Surface Washing / Percent Applied Dose, Total (mass balance) / Percent Applied Dose, Ventral/intermediate center: mean (SD) of five tests; for Increase of radioactivity in the ventral surface of the nail plate, carrier formulation compared with saline control: p<0.05
Protocol: Nail plates were collected from adult human cadavers and stored in a closed container at 0° C. Before each experiment, nail samples were gently washed with normal saline to remove any contamination, then rehydrated by placing them for 3 h on a cloth wetted with normal saline.
The test formulation contains 45% DMSO, 11% glycerin, 11% ethanol, 11% propylene glycol and water, as discussed in Hewitt P G, et al., 1998, Pharm Res 15:988-992. Normal saline (ABBOTT Laboratories, North Chicago, Ill.) was the control. […] A 5 μL aliquot was removed from each vial and radioactivity was measured in a Packard Liquid Scintillation Counter (model 1500).
A 5 μL dosing aliquot of each of the six test solutions was applied to the surface of a nail plate with a microsyringe twice daily, approximately 8 h apart for 7 days. Starting the second day, each morning before dosing, the surface of the nail was washed with cotton tips in a cycle, as follows: a dry tip, then a tip wetted with 50% skin cleansing liquid Ivory soap, then a tip wetted with distilled water, then another tip wetted with distilled water, then a final dry tip. This simulated a daily bathing. The washing samples from each cycle from each nail were pooled and collected by breaking off the cotton tip into scintillation glass vials. An aliquot of 5.0 mL methanol was added into each vial to extract test material. The radioactivity of each sample was measured in a liquid scintillation counter.
A Teflon® one-chamber diffusion cell (AMIE Systems) was used to hold each nail. To approximate physiological conditions, a small cotton ball wetted with 0.1 mL normal saline was placed in the chamber to serve as a “nail bed” and provide moisture for the nail plate. On day 5, 0.1 mL normal saline was injected through the inlet into the chamber to keep the cotton ball wet. A 1.5×1.5 cm aluminum sheet (0.24 mm thickness) with a hole in the center (1.0 cm diameter) was centered and glued to the top (dorsal) surface of the nail as a “frame” for the seal. The aluminum sheet frame flattens the curved nail and extends the surface area of the nail plate to fit the size of the top cover, so that potential leaking is prevented. The nail plate was placed on a ledge inside the receptor (1.0 cm in diameter and 0.5 cm high), sheet side up. The ventral (inner) surface of the nail was placed face down and rested on the wet cotton ball. Hydration of the nail plate and the supporting cotton bed was measured with a relative humidity/temperature meter (Corneometer CM 820; Courage & Khazaka, Cologne, Germany). Hydration was expressed digitally in arbitrary units (AU).
The rim of the cell base was covered with silicon gel and the top cover was set into the gel to prevent leaking. The metal holder was then tightly screwed into place.
The cells were placed on a platform in a large glass holding tank filled with saturated sodium phosphate solution. A digital relative humidity/temperature meter was used for monitoring room temperature, the chamber temperature, and humidity. The holding tank was then covered, thereby maintaining the cells at a constant humidity of 40%.
The sampling instrument consisted of a drill (Dremel™ model 2850; Dremel Inc., Racine, Wis.), a drill press (Dremel™), an adjustable stage (Fisher, Pittsburgh, Pa.) with an adjustable holder, and a high-speed cutter ( 5/16 inch or 7.9 mm in diameter).
After completion of the incubation phase, the nail plate was removed from the diffusion cell. The aluminum sheet frame was peeled off and placed in a glass scintillation vial. The nail plate was transferred to a clean Teflon® diffusion cell for processing. The nail plate was inverted so that the ventral (nail bed) surface faced up and the dorsal (outer) dosed surface faced down. A top cover was tightly screwed into place. The cell was placed in the middle of the holds on the adjustable stage.

[3] = cited from earlier work; remark: listed apart in the source
[4] = Test Carrier Formulation (45% DMSO)

NC(N)=O [Urea, urea]
pKa [1]: 0.1
Radioactive Content, Dorsal/intermediate center ([2]; Saline Formulation): 0.4 (0.3) μg Eq./g Nail Sample
Radioactive Content, Ventral/intermediate center ([2]; Saline Formulation): 0.2 (0.09) μg Eq./g Nail Sample
Radioactive Content, Dorsal/intermediate center [2, 4]: 0.8 (0.5) μg Eq./g Nail Sample
Radioactive Content, Ventral/intermediate center [2, 4]: 0.35 (0.15) μg Eq./g Nail Sample
Increase of radioactivity in the ventral surface of the nail plate, carrier formulation compared with saline control [2]: approximately 50%

O=C(O)c1ccccc1O [salicylic acid]
Percent Applied Dose, Cotton supporting bed ([2]; Saline Formulation): 3.66 (2.02) Percent Applied Dose
Percent Applied Dose, Dorsal/intermediate center ([2]; Saline Formulation): 47.10 (7.76) Percent Applied Dose
Percent Applied Dose, Remainder of nail ([2]; Saline Formulation): 14.20 (5.10) Percent Applied Dose
Percent Applied Dose, Subtotal (nail) ([2]; Saline Formulation): 63.83 (9.54) Percent Applied Dose
Percent Applied Dose, Surface Washing ([2]; Saline Formulation): 20.69 (5.97) Percent Applied Dose
Percent Applied Dose, Total (mass balance) ([2]; Saline Formulation): 88.18 (5.52) Percent Applied Dose
Percent Applied Dose, Ventral/intermediate center ([2]; Saline Formulation): 2.53 (0.51) Percent Applied Dose
Radioactive Content, Dorsal/intermediate center ([2]; Saline Formulation): 71.6 (10.6) μg Eq./g Nail Sample
Radioactive Content, Ventral/intermediate center ([2]; Saline Formulation): 7.0 (1.1) μg Eq./g Nail Sample
Radioactive Content, Dorsal/intermediate center [2, 4]: 16.3 (4.2) μg Eq./g Nail Sample
Radioactive Content, Ventral/intermediate center [2, 4]: 10.2 (0.6) μg Eq./g Nail Sample
Percent Applied Dose, Cotton supporting bed ([2]; Test Carrier Formulation): 2.23 (0.75) Percent Applied Dose
Percent Applied Dose, Dorsal/intermediate center ([2]; Test Carrier Formulation): 4.96 (2.13) Percent Applied Dose
Percent Applied Dose, Remainder of nail ([2]; Test Carrier Formulation): 3.87 (1.26) Percent Applied Dose
Percent Applied Dose, Subtotal (nail) ([2]; Test Carrier Formulation): 15.87 (3.76) Percent Applied Dose
Percent Applied Dose, Surface Washing ([2]; Test Carrier Formulation): 70.86 (2.62) Percent Applied Dose
Percent Applied Dose, Total (mass balance) ([2]; Test Carrier Formulation): 88.96 (2.29) Percent Applied Dose
Percent Applied Dose, Ventral/intermediate center ([2]; Test Carrier Formulation): 7.04 (2.67) Percent Applied Dose
Increase of radioactivity in the ventral surface of the nail plate, carrier formulation compared with saline control [2]: approximately 50%

O=C(O)Cc1ccccc1Nc1c(Cl)cccc1Cl [diclofenac sodium]
Permeability of human skin with the percutaneous drug-enhancing formulation ([3]; carrier formulation): enhanced the permeability

CC(=O)N1CCN(c2ccc(OCC3COC(Cn4ccnc4)(c4ccc(Cl)cc4Cl)O3)cc2)CC1 (stereo not shown) [Ketoconazole, ketoconazole]
Increase of radioactivity in the ventral surface of the nail plate, carrier formulation compared with saline control [2]: approximately 50%

O=C(O)Cc1ccccc1Nc1c(Cl)cccc1Cl [diclofenac]
Human skin penetration over the 48 h of study ([3]; multiple dosing, four doses/day for 2 days, in the carrier, compared with a saline control): continually increased

Source: US20040126343A1, “Nail drug delivery” (priority 2002, published 2004)
